For the experiment, the system named is Candida albicans (ATCC 10231). Nature of the experiment: Visual release protocol: inhibition of C. albicans attachment to skin (tape strips and cyanoacrylate skin pulls), fluorescence microscopy cell count. Type of experiment: cell-based. Conditions: for % Inhibition of yeast attachment / 90 View Total (number of yeast cells) / AVG per view (number of yeast cells): 2% farnesol in TSB, 60 minutes at 33 degrees Celsius; for % Inhibition of yeast attachment: 100-((sample # of cells)/(control # of cells)x100); for 90 View Total (number of yeast cells) / AVG per view (number of yeast cells): view = 6000 um^2. The method, then:
Candida albicans (ATCC 10231) was used in this study. C. albicans was sub-cultured onto a Sabourads medium fortified with glucose (SAB-Dex) agar plate (Becton Dickinson, Cockeysville, Md.) overnight at 37 degrees Celsius. The following day, 2-3 isolated C. albicans colonies were inoculated into 20 ml SAB-Dex broth and incubated overnight shaken at 220 rpm at 32 degrees Celsius for 18 hours. The broth culture was diluted to 1×10^5 CFU/ml with phosphate buffer (VWR Industries, Batavia, Ill.).
The following protocol was used to measure the inhibition of C. albicans to skin (skin tape strips and cyanoacrylate skin pulls) by farnesol. Skin tape strips were made by pulling D-Squame skin sampling discs (CuDerm Corporation, Dallas, Tex.) four times from adjacent adult male volar forearm sites. Cyanoacrylate pulls were done by putting a small amount of super glue on the skin then placing a glass slide on the wetted surface. The glue was allowed to dry then the slide was removed, pulling off the stratum corneum. The tape strips and glue pulls (both will be referred to as strips in subsequent descriptions) were placed into deep six-well plates (Becton Dickinson, Franklin Lakes, N.J.). The strips were then blocked with 2.0 ml of 5% Bovine Serum Albumin (BSA) (Sigma, St. Louis, Mo.) in PBS buffer (150 mM NaCl, 50 mM Potassium Phosphate (KP), pH 7.4) for 60 minutes at 33 degrees Celsius while shaking at 220 rpm.
Next, each well's fluid was removed and 1.0 ml (10^5 Colony Forming Units (CFU)/ml) C. albicans was added to each strip. Then, 1.0 ml of Trypticase Soy Broth (TSB) [Difco Labs, Detroit, Mich.] containing 2% farnesol (DRAGOCO, Totowa, N.J.) was added to each strip, and the plates incubated at 33 degrees Celsius for 60 minutes. The fluid was aspirated, and the strips were washed 3 times with 3.0 ml PBS. Both sides of each tape strip were washed with a stream of PBS then placed in fresh 6-well plates.
Each strip was fixed by adding 2.0 ml of 2.5% Glutaraldehyde (Sigma Chemical, St. Louis, Mo.) to each of the wells of the 6-well plates for 10 minutes. The tape strips were then washed 3 times with 3.0 ml distilled water and stained by adding 0.5 ml Calcofluor White (Difco, Ann Arbor, Mich.) to the wells for 10 to 15 minutes. The tape strips were again washed 3 times with distilled water and then flooded with 2 ng/ml Nile Red (Sigma Chemical, St. Louis, Mo.) and allowed to air dry.
Once the tape strips air-dried, the yeast cells were enumerated automatically utilizing a Nikon Eclipse TE 300 fluorescent microscope fitted with a DAPI excitation filter and a Triple Pass barrier filter (Tokyo, Japan). The counting procedure was automated (Table 1 and Table 2) through the use of MetaMorph (Universal Imaging, Dowingtown, Pa.) software such that each sample had 30 views. Each image view was a 6000 um^2. The total field of view was approximately 25% of the total tape strip and 75% of the cyanoacrylate pull. The percent inhibition was calculated as follows: 100-((sample # of cells)/(control # of cells)×100). Approximately 10^4 yeast cells bound to a 22-mm diameter D-Squame tape strip under these conditions.

[1] abbreviates: Cyanoacrylate pull of human volar forearm skin.
Setting [2] is: Tape strip of human volar forearm skin.

As to `CC(C)=CCCC(C)=CCCC(C)=CCO` [Farnesol, 3,7,11-trimethyl-2,6,10-dodecatrien-1-ol], the “% Inhibition of yeast attachment” value runs as follows: under setting [1], 93.8%; (Cyanoacrylate pull of human volar forearm skin, listed as farnesol) 94%; under setting [2], 63.8%; (Tape strip of human volar forearm skin, listed as farnesol) 64%. Besides, the “90 View Total (number of yeast cells)” value under setting [1] came out at 955 and the “90 View Total (number of yeast cells)” value under setting [2] is on record as 6963. Moreover, the “AVG per view (number of yeast cells)” value is given as 10.6 under setting [1] and 77.4 under setting [2]. Also, where the note is “farnesol at a concentration of 2%”, the “inhibition of the attachment of yeast to skin (in words)” value is “effectively inhibit the attachment of yeast to skin”.
